Where two headings read alike, the source gives them in different places.
What was measured:
PPARδ = target: T1, PPARδ (Homo sapiens, UniProt Q03181); experiment: PPARδ transactivation activity (GAL4-hPPARδ LBD luciferase reporter in CV-1 cells); type: cell-based; details: for PPARδ transactivation activity (statement in words on Table 25) / Relative PPARδ transactivation activity (δ): CV-1 cells, test compound 10^-6 M; for PPARδ transactivation activity (statement in words on Table 25): control 10^-4 M L-165041 = 100%; for Relative PPARδ transactivation activity (δ): 40 hours, 100% = 10^-4 M L-165041, 0% = DMSO (0.1%)
T1 construct: transfection mixture (250 μL/well) containing 0.03 μg of GAL4-hPPARδ LBD; expressed in transfected cells; host or cells: CV-1 cells
T1 sequence (Q03181 211-439 limits assumed): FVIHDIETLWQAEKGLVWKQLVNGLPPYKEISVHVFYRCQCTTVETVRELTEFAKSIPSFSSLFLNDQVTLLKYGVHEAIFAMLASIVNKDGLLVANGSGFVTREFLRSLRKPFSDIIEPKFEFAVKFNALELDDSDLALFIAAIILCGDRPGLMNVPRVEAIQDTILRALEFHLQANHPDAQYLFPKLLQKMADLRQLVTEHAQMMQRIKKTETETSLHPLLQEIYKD
Method: PPARδ transactivation activity of the compound of the invention was measured in the manner described below.
A receptor expression plasmid (GAL4-hPPARδ LBD), a reporter plasmid (UASx4-TK-LUC) and a β-galactosidase (β-GAL) expression plasmid were transfected into CV-1 cells by using DMRIE-C reagent. Subsequently, the cells were incubated for 40 hours in the presence of a compound of the invention, and then the luciferase and β-GAL activities of the cell lysate were assayed.
(§1) (1) Measurement of PPARα, γ, δ transactivation activity
(§2) CV-1 cells were obtained from Tohoku University Aging Medical Laboratory, Medical Cell Collection Center. All test compounds were dissolved in dimethylsulfoxide (DMSO). Final concentration of DMSO was 0.1%.
(§3) CV-1 cells were seeded in 24 well culture plates at 2×10^5 cells per well, and cultured for 24 hours OPTI-MEM I Reduced Serum Medium (Life Technologies, 500 μL/well) containing 4%-fetal bovine serum (FBS). After washing with OPTI-MEM, transfection mixture (250 μL/well) containing 0.03 μg of GAL4-hPPARδ LBD, 0.25 μg of UASx4-TK-LUC, 0.35 μg of βGAL, and 2 μL of lipofection reagent, DMRIE-C (Life Technologies) were added. The cells were incubated for 5 hours at 37° C. […]
(§4) The culture medium was removed and the cells were washed with PBS twice. A solubilizing buffer (100 μL/well) containing 25 mM Tris-PO4 (pH 7.8), 15%v/v glycerol, 2% CHAPS, 1% Lecithin, 1% BSA, 4 mM EGTA (pH 8.0), 8 mM MgCl2, 1 mM DTT was added. After the incubation for 10 minutes at room temperature, a portion (20 μL) of the solution was transferred into a 96-well plate. Subsequently, 100 μL of luciferase substrate solution (Piccagene: available from Nippon Gene Co., Ltd.) was added, and a luminous intensity per one second (luciferase activity) was measured using a microluminoreader (Type MLR-100, Corona Electrics Co., Ltd.). Each luciferase activity was corrected by the transfection efficiency which was calculated from β-galactosidase activity. The assay method of β-galactosidase activity was as follows: A portion (50 μL) of the solubilized sample was transferred into another 96-well plate; 100 μL of ONPG (2-nitrophenyl-β-galactopyranoside) solution was added and incubated for 5 minutes at room temperature. 50 μL of a reaction stopping solution (1M sodium carbonate solution) was added. Then the absorbance at 414 nm was measured.

PPARα = target: T2, PPARα (Homo sapiens, UniProt Q07869); experiment: PPARα transactivation activity (GAL4-hPPARα LBD luciferase reporter in CV-1 cells); type: cell-based; details: for Relative activity for PPAR transactivation, α: compounds at 10^-7 M; for Relative PPARα transactivation activity (α): test compound 10^-6 M, 40 hours, CV-1 cells, 100% = 10^-4 M, 0% = DMSO (0.1%)
T2 construct: Receptor expression plasmid (GAL4-hPPARα, LBD GAL4-hPPARγ LBD, GAL4-hPPARδ LBD); expressed in transfected cells; host or cells: CV-1 cells
T2 sequence (Q07869 239-466 limits assumed): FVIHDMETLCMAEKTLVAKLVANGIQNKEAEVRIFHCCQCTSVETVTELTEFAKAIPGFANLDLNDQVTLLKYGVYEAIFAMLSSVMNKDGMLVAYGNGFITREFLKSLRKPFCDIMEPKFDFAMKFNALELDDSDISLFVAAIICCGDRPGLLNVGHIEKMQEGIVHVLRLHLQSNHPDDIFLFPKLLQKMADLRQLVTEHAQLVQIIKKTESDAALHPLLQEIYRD
Method: as §1
PPARα, γ, δ transactivation activity of each compound [Examples 1-4] was measured in the manner described below.
as §2
Receptor expression plasmid (GAL4-hPPARα, LBD GAL4-hPPARγ LBD, GAL4-hPPARδ LBD), Reporter plasmid (UASx4-TK-LUC), and β-galactosidase expression plasmid (βGAL) similar to Kliewer, S. A., et al., ((1992) Nature, 358:771-774) were used.
CV-1 cells were seeded in 24 well culture plates at 2×10^5 cells per well, and cultured for 24 hours OPTI-MEM I Reduced Serum Medium (Life Technologies, 500 μL/well) containing 4%-fetal bovine serum (FBS). After washing with OPTI-MEM, transfection mixture (250 μL/well) containing 0.03 μg of GAL4-hPPARδ LBD, 0.25 μg of UASx4-TK-LUC, 0.35 μg of βGAL, and 2 μL of lipofection reagent, DMRIE-C (Life Technologies) were added. The cells were incubated for 5 hours at 37° C.
The cells were washed and incubated for 40 hours in the presence of the test compound (final concentration was 10^−6M).
as §4
A relative PPAR activity was calculated as follows: 0% (luciferase activity of cells treated with DMSO (0.1%) alone), 100% (luciferase activity of cells treated with a control (PPARα: 10^−4 M […], PPARγ: 10^−5 M Rosiglitazone, PPARδ: 10^−4 M L-165041)).
PPAR transactivation activities of the compounds of Examples 5-10 were assayed in the same manner as described in Example 11.
Relative activities for PPAR transactivation were shown.
Each value represents as % of control. Cells were cultured in the presence of compounds at 10^−7 M except that PPARδ of Examples 5, 6 and 7 were assayed at 10^−8 M.

PPARγ = target: T3, PPARγ (Homo sapiens, UniProt P37231); experiment: PPARγ transactivation activity (GAL4-hPPARγ LBD luciferase reporter in CV-1 cells); type: cell-based; details: for Relative PPARγ transactivation activity (γ): test compound 10^-6 M, 40 hours, CV-1 cells, 100% = 10^-5 M Rosiglitazone, 0% = DMSO (0.1%)
T3 construct: Receptor expression plasmid (GAL4-hPPARα, LBD GAL4-hPPARγ LBD, GAL4-hPPARδ LBD); expressed in transfected cells; host or cells: CV-1 cells
T3 sequence (P37231 238-503 limits assumed): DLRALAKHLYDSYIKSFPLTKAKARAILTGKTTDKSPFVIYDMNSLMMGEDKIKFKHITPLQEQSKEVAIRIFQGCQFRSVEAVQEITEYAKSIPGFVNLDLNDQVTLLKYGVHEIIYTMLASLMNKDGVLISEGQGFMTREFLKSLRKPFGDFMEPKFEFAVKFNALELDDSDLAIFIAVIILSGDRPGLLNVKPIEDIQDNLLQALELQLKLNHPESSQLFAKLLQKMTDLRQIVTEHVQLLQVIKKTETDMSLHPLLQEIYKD
Method: as §1, §2, §3, §4

db/db mice = test system: db/db mice
Method: HDL cholesterol elevating effect was measured by using db/db mice, which are hereditary obesity mice. The db/db mice (10 weeks old) were divided into groups based on serum HDL cholesterol levels. […] Mice of the control group (to which no agent was administered) were orally given 1% methyl cellulose solution. After 16 hours from the final administration, blood sample was collected, and serum HDL cholesterol level was measured. HDL cholesterol was separated by electrophoresis on agarose gels (Chol/Trig Combo, Helena Laboratories). Serum total cholesterol levels were measured enzymaticallly using a kit (Pure Auto, Daiichi Chemicals) by an automatic analyzer (7060E type, Hitachi Ltd.). HDL cholesterol levels were calculated from total cholesterol levels and HDL cholesterol/total cholesterol ratios.
Each value represents as % of the control group.

[1] = compounds at 10^-8 M (Examples 5, 6 and 7)

| SMILES | Relative activity for PPAR transactivation, δ (PPARδ; [1]) | Relative activity for PPAR transactivation, α (PPARα) | Relative activity for PPAR transactivation, γ (PPARγ; compounds at 10^-7 M) | Relative PPARδ transactivation activity (δ) (PPARδ) [%] | Relative PPARα transactivation activity (α) (PPARα) [%] | Relative PPARγ transactivation activity (γ) (PPARγ) [%] | Relative activity for PPAR transactivation, δ (PPARδ; compounds at 10^-7 M) | other results |
| --- | --- | --- | --- | --- | --- | --- | --- | --- |
| Cc1cc2c(CCc3sc(-c4ccc(C(F)(F)F)cc4)nc3C(C)C)noc2cc1SCC(=O)O [Example 7, [3-[2-[4-Isopropyl-2-(4-trifluoromethyl)phenyl-5-thiazolyl]ethyl]-5-methyl-1,2-benzisoxazol-6-yl]thioacetic acid] | 63 % of control | 0 % of control | 0 % of control |  |  |  |  |  |
| C=CCc1c(OCC(=O)O)ccc2c(CCc3nc(-c4ccc(Cl)cc4Cl)oc3C(C)C)noc12 [Example 1, [[7-Allyl-3-[2-[2-(2,4-dichlorophenyl)-5-isopropyl-4-oxazolyl]ethyl]-1,2-benzisoxazol-6-yl]oxy]acetic acid] |  |  |  | 76.9 | 0.1 | 9.4 |  | PPARδ transactivation activity (statement in words on Table 25) (PPARδ): selective PPARδ transactivation activity |
| C=CCc1c(OC(C)(C)C(=O)O)ccc2c(CCc3sc(-c4ccc(C(F)(F)F)cc4)nc3C(C)C)noc12 [Example 4, 2-[[7-Allyl-3-[2-[2-[(4-trifluoromethyl)phenyl]-4-isopropyl-5-thiazolyl]ethyl]-1,2-benzisoxazol-6-yl]oxy]-2-methylpropionic acid] |  |  |  | 59.9 | 85.0 | 9.5 |  |  |
| C=CCc1c(OC(C)(C)C(=O)O)ccc2c(CCc3nc(-c4ccc(Cl)cc4Cl)oc3C(C)C)noc12 [Example 2, 2-[[7-Allyl-3-[2-[2-(2,4-dichlorophenyl)-5-isopropyl-4-oxazolyl]ethyl]-1,2-benzisoxazol-6-yl]oxy]-2-methylpropionic acid] |  |  |  | 67.8 | 8.0 | 3.2 |  | PPARδ transactivation activity (statement in words on Table 25) (PPARδ): selective PPARδ transactivation activity |
| Cc1cc2c(CCc3sc(-c4ccc(C(F)(F)F)cc4)nc3C(C)C)noc2cc1OCC(=O)O [Example 5, [3-[2-[4-Isopropyl-2-(4-trifluoromethyl)phenyl-5-thiazolyl]-ethyl]-5-methyl-1,2-benzisoxazol-6-yl]oxyacetic acid] | 75 % of control | 0 % of control | 0 % of control |  |  |  |  |  |
| Cc1cc2c(CCc3sc(-c4ccc(C(F)(F)F)cc4)nc3C(C)C)noc2cc1OC(C)(C)C(=O)O [Example 6, 2-[[3-[2-[4-Isopropyl-2-(4-trifluoromethyl)phenyl-5-thiazolyl]ethyl]-5-methyl-1,2-benzisoxazol-6-yl]oxy]-2-methylpropionic acid] | 54 % of control | 0 % of control |  |  |  |  |  | Ratio of increasing HDL cholesterol (db/db mice; 10 mg/kg b.i.d. orally for one week, serum 16 hours after final administration): 164 % to control; HDL cholesterol elevating effect (statement in words on Table 27) (db/db mice; oral, twice daily for one week, serum HDL cholesterol 16 hours after final administration): potent HDL cholesterol elevating effect; Relative activity for PPAR transactivation, γ (PPARγ): 0 % of control |

Further lines, with some results ahead:

| Relative activity for PPAR transactivation, δ (PPARδ; [1]) | Relative activity for PPAR transactivation, α (PPARα) | Relative activity for PPAR transactivation, γ (PPARγ; compounds at 10^-7 M) | Relative PPARδ transactivation activity (δ) (PPARδ) [%] | Relative PPARα transactivation activity (α) (PPARα) [%] | Relative PPARγ transactivation activity (γ) (PPARγ) [%] | Relative activity for PPAR transactivation, δ (PPARδ; compounds at 10^-7 M) | SMILES | other results |
| --- | --- | --- | --- | --- | --- | --- | --- | --- |
|  | 3 % of control | 0 % of control |  |  |  | 75 % of control | Cc1cc2c(CCc3sc(-c4ccc(C(F)(F)F)cc4)nc3C(C)C)noc2cc1OC(C)(C)C(=O)OCCN1CCCCC1.Cl [Example 10, 2-[[3-[2-[4-Isopropyl-2-(4-trifluoromethyl)phenyl-5-thiazolyl]ethyl]-5-methyl-1,2-benzisoxazol-6-yl]oxy]-2-methylpropionic acid 2-piperidin-1-yl ethyl ester hydrochloride] |  |
|  | 0 % of control | 2 % of control |  |  |  | 86 % of control | Cc1cc2c(CCc3nc(-c4ccc(Cl)cc4Cl)oc3C(C)C)noc2cc1OCC(=O)O [Example 9, (3-[2-[2-(2,4-Dichlorophenyl)-5-isopropyl-4-oxazolyl]ethyl]-5-methyl-1,2-benzisoxazol-6-yl]oxyacetic acid] |  |
|  | 0 % of control | 0 % of control |  |  |  | 61 % of control | Cc1cc2c(CCc3sc(-c4ccc(C(F)(F)F)cc4)nc3C(C)C)noc2cc1NCC(=O)O [Example 8, [3-[2-[4-Isopropyl-2-(4-trifluoromethyl)phenyl-5-thiazolyl]ethyl]-5-methyl-1,2-benzisoxazol-6-yl]aminoacetic acid] |  |

Source: patent publication US7402597B2, “Activator of peroxisome proliferator-activated receptor δ” (Nippon Chemiphar Co., Ltd, priority 2001, dated 2008)
